Values after ≈ are worked out from the molar mass of the structure shown.
How the values were obtained:
Plasmodium yoelii [1] = assay: Prophylactic activity in infected mouse at 160 mg/kg peroral administration, expressed as no of organisms survived; Not dosed
Plasmodium yoelii [2] = assay: Prophylactic activity in infected mouse at 40 mg/kg peroral administration, expressed as no of organisms survived; Total organisms= 5; settings: route oral
Plasmodium yoelii [3] = assay: In vitro antimalarial activity dosed at 1 mg/kg against exoerythrocytic Plasmodium yoelii in mice (Mus musculus) hepatocytes; settings: Hepatocyte
Plasmodium yoelii [4] = assay: Prophylactic activity in infected mouse at 160 mg/kg peroral administration, expressed as no of organisms survived; Total organisms= 5; settings: route oral
Plasmodium yoelii [5] = assay: In vitro antimalarial activity dosed at 10 mg/kg against exoerythrocytic Plasmodium yoelii in mice (Mus musculus) hepatocytes; settings: Hepatocyte
Plasmodium yoelii [6] = assay: Prophylactic activity in infected mouse at 10 mg/kg peroral administration, expressed as no of organisms survived; Total organisms= 5; settings: route oral
Plasmodium falciparum [7] = assay: (§1) In vitro antimalarial activity for Plasmodium falciparum D6; format: functional
Plasmodium falciparum [8] = assay: (§2) In vitro antimalarial activity for Plasmodium falciparum W2; format: functional
Plasmodium falciparum [9] = assay: (§3) In vitro antimalarial activity for Plasmodium falciparum TM91C235; format: functional
Plasmodium yoelii [10] = assay: Prophylactic activity in infected mouse at 5 mg/kg peroral administration, expressed as no of organisms survived; Total organisms= 5; settings: route oral
Plasmodium yoelii [11] = assay: Prophylactic activity in infected mouse at 2.5 mg/kg peroral administration, expressed as no of organisms survived; Total organisms= 5; settings: route oral
Plasmodium yoelii [12] = assay: Prophylactic activity in infected mouse at 20 mg/kg peroral administration, expressed as no of organisms survived; Total organisms= 5; settings: route oral
Plasmodium yoelii [13] = assay: Prophylactic activity in infected mouse at 80 mg/kg peroral administration, expressed as no of organisms survived; Total organisms= 5; settings: route oral
Plasmodium falciparum [14] = assay: as §3; format: functional, organism-based
Plasmodium falciparum [15] = assay: as §2; format: functional, organism-based
Plasmodium falciparum [16] = assay: as §1; format: functional, organism-based
Plasmodium yoelii [17] = assay: Prophylactic activity in infected mouse at 1.23 mg/kg peroral administration, expressed as no of organisms survived; Total organisms= 5; settings: route oral
Plasmodium yoelii [18] = assay: Prophylactic activity in infected mouse at 160 mg/kg peroral administration, expressed as no of organisms survived; Toxicity death
Plasmodium yoelii [19] = assay: Prophylactic activity in infected mouse at 1.25 mg/kg peroral administration, expressed as no of organisms survived; Total organisms= 5; settings: route oral

Row | Structure (SMILES) | Activity (Plasmodium yoelii [2]) | inhibition in vivo at 1 mg/kg (Plasmodium yoelii [3]) [%] | Activity (Plasmodium yoelii [4]) | inhibition in vivo at 10 mg/kg (Plasmodium yoelii [5]) [%] | Activity (Plasmodium yoelii [6]) | Activity (Plasmodium yoelii [10]) | Activity (Plasmodium yoelii [11]) | further results
1 | C=CCCOC(=O)N/C(=N/C(C)C)NC1=NC(=O)C(=O)N1c1ccc(Cl)c(Cl)c1 |  |  |  |  |  |  |  | Activity (Plasmodium yoelii [1]): Not Dosed
2 | CC(C)N1C(=O)C(=O)N=C1N/C(=N\C(=O)OCc1ccccc1)Nc1ccc(Cl)c(Cl)c1 | 0 | 25 | 0 | 43 |  |  |  | 
3 | CCO[C@H]1O[C@@H]2O[C@@]3(C)CC[C@H]4[C@H](C)CC[C@@H]([C@H]1C)[C@@]24OO3 [ARTEMOTIL] | 0 |  | 0 |  | 0 |  |  | 
4 | O[C@@H](c1cc(C(F)(F)F)nc2c(C(F)(F)F)cccc12)C1CCCCN1 (some centres undefined) [MEFLOQUINE] |  |  |  |  |  |  |  | IC90 (Plasmodium falciparum [7]): 0.0134 µg/mL (≈ 0.0355 µM); IC90 (Plasmodium falciparum [8]): 0.00401 µg/mL (≈ 0.0106 µM); IC90 (Plasmodium falciparum [9]): 0.044 µg/mL (≈ 0.116 µM)
5 | CC(C)/N=C(/NC(=O)OCc1ccccc1)NC1=NC(=O)C(=O)N1c1ccc(Cl)c(Cl)c1 | 2 | 6.7 | 3 | 87 | 2 | 3 | 0 | 
6 | Cc1oc(=O)oc1COC(=O)/N=C(\NC1=NC(=O)C(=O)N1C(C)C)Nc1ccc(Cl)c(Cl)c1 | 2 |  | 3 |  | 2 |  | 0 | 
7 | CC(C)N1C(=O)C(=O)N=C1N/C(=N\C(=O)OC(C)(C)C)Nc1ccc(Cl)c(Cl)c1 | 2 | 69 | 5 | 99 | 0 |  |  | 
8 | CC(C)N1C(=O)C(=O)N=C1N/C(=N\C(=O)OCCOCc1ccccc1)Nc1ccc(Cl)c(Cl)c1 | 0 |  | 1 |  | 0 |  |  | 
9 | CCCCCCOC(=O)/N=C(\NC1=NC(=O)C(=O)N1C(C)C)Nc1ccc(Cl)c(Cl)c1 | 2 |  | 1 |  | 0 |  |  | 
10 | CCOC(=O)N/C(=N/C(C)C)NC1=NC(=O)C(=O)N1c1ccc(Cl)c(Cl)c1 | 5 | 10 |  | 98 | 1 | 1 |  | Activity (Plasmodium yoelii [12]): 3; Activity (Plasmodium yoelii [13]): 5
11 | C=CCCOC(=O)/N=C(\NC1=NC(=O)C(=O)N1C(C)C)Nc1ccc(Cl)c(Cl)c1 | 0 |  | 1 |  | 0 |  |  | 
12 | CCN(CC)CCCC(C)Nc1ccnc2cc(Cl)ccc12 (centres undefined) [CHLOROQUINE] |  |  |  |  |  |  |  | IC90 (Plasmodium falciparum [7]): 0.00533 µg/mL (≈ 0.0167 µM); IC90 (Plasmodium falciparum [8]): 0.199 µg/mL (≈ 0.621 µM); IC90 (Plasmodium falciparum [9]): 0.0552 µg/mL (≈ 0.173 µM)
13 | CC(C)N1C(=O)C(=O)N=C1NC(=N)Nc1ccc(Cl)c(Cl)c1 |  | 50 |  | 91 |  |  |  | IC90 (Plasmodium falciparum [7]): 12.1 µg/mL (≈ 35.3 µM); IC50 (Plasmodium falciparum [14]): 2.59 µg/mL (≈ 7.57 µM); IC90 (Plasmodium falciparum [8]): 10.9 µg/mL (≈ 31.8 µM); IC50 (Plasmodium falciparum [15]): 2.66 µg/mL (≈ 7.79 µM); IC90 (Plasmodium falciparum [9]): 11.3 µg/mL (≈ 33.2 µM); IC50 (Plasmodium falciparum [16]): 2.97 µg/mL (≈ 8.68 µM)
14 | COc1cc(NC(C)CCCN)c2ncccc2c1 (centres undefined) [PRIMAQUINE] | 2 |  | 5 |  | 0 |  |  | 
15 | CCOC(=O)/N=C(\NC1=NC(=O)C(=O)N1C(C)C)Nc1ccc(Cl)c(Cl)c1 | 4 | 63 | 5 | 99 | 2 |  | 0 | 
16 | CC(C)COC(=O)N/C(=N/C(C)C)NC1=NC(=O)C(=O)N1c1ccc(Cl)c(Cl)c1 | 5 |  | 5 |  | 5 | 5 | 1 | Activity (Plasmodium yoelii [17]): 0
17 | COc1cc(C)c2c(Oc3cccc(C(F)(F)F)c3)c(OC)cc(NC(C)CCCN)c2n1 (centres undefined) [TAFENOQUINE] | 5 | 39 |  | 96 | 5 | 5 | 3 | Activity (Plasmodium yoelii [18]): Toxicity death
18 | CC(C)/N=C(/NC(=O)OC(C)(C)C)NC1=NC(=O)C(=O)N1c1ccc(Cl)c(Cl)c1 | 4 |  | 5 |  |  | 4 | 2 | Activity (Plasmodium yoelii [19]): 2
19 | CCCCCCOC(=O)N/C(=N/C(C)C)NC1=NC(=O)C(=O)N1c1ccc(Cl)c(Cl)c1 | 3 |  |  |  | 2 | 2 |  | Activity (Plasmodium yoelii [12]): 4; Activity (Plasmodium yoelii [13]): 5
20 | CC(C)COC(=O)/N=C(\NC1=NC(=O)C(=O)N1C(C)C)Nc1ccc(Cl)c(Cl)c1 | 2 |  | 5 |  | 0 |  |  | 

— ChEMBL document CHEMBL1141117, “Unambiguous synthesis and prophylactic antimalarial activities of imidazolidinedione derivatives” (J Med Chem, 2005)
